Results reported in patent US20220119772A1, “COMPOSITIONS AND METHODS FOR TREATMENT OF A MALABSORPTIVE DISORDER” (CHILDREN'S HOSPITAL MEDICAL CENTER, priority 2019, published 2022).
Ends that are not written are not given here.

What was measured:
HIO-derived enteroids [1] = experiment: Enteroid swelling assay (VIP-induced, CFTR-mediated ion and water efflux); type: cell-based, human; conditions: for VIP-induced enteroid swelling: 10 nM VIP, 6 h, 10 nM PYY or 20 μM CFTR-172 added 24 h before imaging
Method: Enteroids were plated in 10 μL Matrigel on an 8-chamber glass bottom slide (Ibidi) and maintained as described above. 3-5 days post-plating, the slide was mounted on an inverted confocal microscope (Nikon) fitted with an incubation chamber set to 37° C. and 5% CO2. Media was changed to include 10 nM VIP (Tocris). In some experiments, the media was changed 24 hours prior to imaging to include 20 μM CFTR (inh)-172 (Millipore Sigma) or 10 nM PYY (Phoenix Pharmaceuticals). Images were acquired every 5 minutes at 4× magnification. After 6 hours, some HIOEs swelled to the point of bursting; therefore, Applicant used images acquired at time 0 and at 6 hours for quantification. The area of 10 representative enteroids per well was quantified using NIS Elements software at both time points. The outline of individual enteroids was traced manually and the area calculated by NIS Elements. Fold change at 6 hours over baseline was reported. Data include a minimum of three independent experiments per condition.

HIO-derived enteroids [2] = experiment: Intracellular pH assay (pHrodo, flow cytometry) in enteroids; type: cell-based, human
Method: (§1) Enteroids were differentiated for 5-7 days in the presence of vehicle (water), 10 nM VIP (Tocris) or 10 nM PYY (Phoenix Pharmaceuticals) and 10 nM VIP. On the final day, enteroids were removed from Matrigel and enzymatically dissociated into single-cell suspension using 0.25% Trypsin-EDTA. Cell suspensions were counted and equal cell numbers of dissociated HIOEs were incubated in pHrodo Green AM Intracellular pH indicator (ThermoFisher Scientific) according to manufacturer's directions for 30 minutes at 37 C., washed with 1X PBS, and analyzed by flow cytometry.
(§2) After mechanical and enzymatic dissociation, tissues were filtered through a 40 μm cell strainer to obtain a single-cell suspension. In all experiments, samples were labeled with either CDH1-mRuby2 or Anti-EpCam-APC (BD Biosciences) to distinguish epithelial cells and incubated with SYTOX Blue dead cell stain (Life Technologies) or 7-AAD (BD Pharmingen). Forward scatter and side scatter were used to discriminate doublets and cellular debris. A minimum of 50,000 events per sample was recorded using an LSR Fortessa flow cytometer (BD Biosciences) and data was analyzed using FACSDiva software (BD Biosciences).

SLC9A3 (NHE3) expression = experiment: qPCR of SLC9A3 (NHE3) expression in enteroids; type: cell-based, human
Method: RNA was extracted using Nucleospin RNA extraction kit (Macharey-Nagel) and reverse transcribed into cDNA using Superscript VILO (Invitrogen) according to manufacturer's instruction. qPCR primers were designed using NCBI PrimerBlast. Primer sequences are listed in the table below. qPCR was performed using Quantitect SYBR® Green PCR kit (QIAGEN) and a QuantStudio 3 Flex Real-Time PCR System (Applied Biosystems). Relative expression was determined using the […] method and normalizing to PPIA (cyclophilin A). Samples from at least three independent passages were used for quantification.
as §1

[3] = test system: human small intestinal tissue (transplanted HIOs); experiment: Ussing chamber electrophysiology, peptides/chemicals added ex vivo, transplanted HIO tissue; type: cell-based; conditions: for initial Isc response to luminal glucose: then 25 mM D-glucose
Method: (§3) 28-35 days after spheroid generation, HIOs were removed from Matrigel and transplanted under the kidney capsule of immune deficient NOD.Cg-Prkdc^scidI12rg^tmIWjl/SzJ (NSG) mice as previously described^16. NSG mice were maintained on Bactrim chow for a minimum of 2 weeks prior to transplantation and thereafter for the duration of the experiment (8-14 weeks).
(§4) Electrophysiological experiments were conducted as described^28 with minor modifications. Mouse jejunum and transplanted HIOs were dissected and immediately placed in ice-cold Krebs-Ringer solution. Tissues were opened to create a flat epithelial surface. Because seromuscular stripping is associated with release of cyclooxygenases and prostaglandins^28, and prostaglandins can stimulate L-cells to release GLP1, GLP2 and PYY^36, Applicant performed the Ussing chamber experiments in intestinal tissue with an intact muscular layer. Tissues were mounted into sliders (0.031 cm^2 area slider, P2307, Physiological Instruments) and placed in an Ussing chamber with reservoirs containing 5 mL buffer (115 mM NaCl, 1.2 mM CaCl2, 1.2 mM MgCl2, 25 mM NaHCO3, 2.4 mM K2HPO4 and 0.4 mM KH2PO4). The mucosal and serosal tissue surfaces were bathed in the same solution, with the exception of 10 mM glucose in the serosal buffer and 10 mM mannitol in the luminal buffer. Mucosal and serosal reservoir solutions were gassed with 95% O2 and 5% CO2 to pH 7.4 and maintained at 37° C. by a circulating water bath behind the reservoir chambers. Electrophysiology parameters were recorded as previously described^37. Tissue was allowed to equilibrate to a basal steady-state for a minimum of 30 minutes before the addition of chemicals or peptides. 10 nM tetrodotoxin (Tocris) was added to the serosal buffer bathing mouse intestine to inhibit voltage-gated neuronal firing and allowed to incubate for a minimum of 10 minutes before basal Isc recording. D-glucose and Gly-Sar were added to the luminal side of the chamber once the VIP-induced Isc had stabilized at a maximum value.

mouse jejunum = experiment: Ussing chamber electrophysiology, peptides/chemicals added ex vivo, mouse jejunum; type: cell-based; conditions: for initial Isc response to luminal glucose: then 25 mM D-glucose
Method: as §4

[4] = test system: EEC-deficient HIOs transplanted in NSG mice; experiment: PYY treatment of NSG mice hosting EEC-deficient HIOs, Ussing chamber analysis of HIO tissue; type: in vivo, human
Method: as §3
Electrophysiological experiments were conducted as described^28 with minor modifications. Mouse jejunum and transplanted HIOs were dissected and immediately placed in ice-cold Krebs-Ringer solution. Tissues were opened to create a flat epithelial surface. Because seromuscular stripping is associated with release of cyclooxygenases and prostaglandins^28, and prostaglandins can stimulate L-cells to release GLP1, GLP2 and PYY^36, Applicant performed the Ussing chamber experiments in intestinal tissue with an intact muscular layer. […] Electrophysiology parameters were recorded as previously described^37. […]
NSG mice hosting HIOs were treated with 25 μg PYY (Phoenix Pharmaceuticals) diluted in water to 100 μL by intraperitoneal injection. Mice were treated daily for a minimum of 10 days after HIOs had been maturing for 8 weeks, then dissected and analyzed.

[5] = test system: VillinCre;Neurog3flox/flox (EEC-deficient) mice; experiment: PYY rescue of EEC-deficient mice (daily i.p. injection), with ex vivo analysis of jejunum; type: in vivo, mouse
Method: as §4, §2
VillinCre;Neurog3^flox/flox mice^4 and their littermates were weighed, genotyped and visually examined for liquid feces daily beginning at postnatal day 10. Applicant established a diarrhea score, with 3 representing wet, yellow feces that smeared the perianal fur, and 0 representing normal, dry, brown, well-defined pellets. Mutant mice which suffered from diarrhea score 3 were included in the rescue experiment. 10 μg PYY (Phoenix Pharmaceuticals) was diluted in water and added to 20 μl DPP4 inhibitor (Millipore) to a final volume of 100 μl per mouse. Mice were injected intraperitoneally with this cocktail within 2 hours of the onset of the dark cycle (7 pm) daily until analysis at postnatal day 28-35. Mice were given access to solid chow on the floor of the cage beginning at postnatal day 10 and weaned at postnatal day 21.

VIP: vasoactive intestinal peptide (Tocris), ENS-derived peptide signalling via VIPR1 to raise cAMP (HSDAVFTDNYTRLRKQMAVKKYLNSILN-NH2; ends and bridges not checked; UniProt P01282 125-152, looked up)
ion and water transport as measured by organoid swelling (HIO-derived enteroids [1]; 10 nM VIP added to enteroids): induced ion and water transport
intracellular pH (HIO-derived enteroids [2]; EEC-deficient enteroids differentiated with 10 nM VIP for 5-7 days): developed an H^+ imbalance with an acidic cytoplasm
SLC9A3 expression (SLC9A3 (NHE3) expression; EEC-deficient enteroids, 5-7 days of exposure to VIP): reduced
SLC9A3 expression (SLC9A3 (NHE3) expression; wild type enteroids, 5-7 days of exposure to VIP): reduced

O=C(O)c1ccc(/C=C2\SC(=S)N(c3cccc(C(F)(F)F)c3)C2=O)cc1 [CFTR-172]
VIP-induced enteroid swelling (HIO-derived enteroids [1]; EEC-deficient enteroids): blocked
VIP-induced enteroid swelling (HIO-derived enteroids [1]; wild type enteroids): blocked
electrogenic response to VIP ([3]; wild-type and EEC-deficient human tissue, 20 μM CFTR-172): blocked
electrogenic response to VIP (mouse jejunum; wild type and mutant jejunum pre-treated with 20 μM CFTR-172): blocked

NC(=O)NCc1ccc(CNC(=O)[C@@H](CCCN=C(N)N)NC(=O)C(c2ccccc2)c2ccccc2)cc1 [BIB03304, N-[(1R)-1-[[[[4-[[(Amirtocarbortyl)amino]methyl]phenyl]methyl]amino]carbonyl]-4-[(aminoiminomethyl)amino]butyl]-α-phenyl-benzeneacetamide ditrifluoroacetate]
initial Isc response to luminal glucose ([3]; wild-type HIO tissue treated with VIP, NPY1R antagonist BIB03304): caused an abnormal initial response to glucose that mimicked EEC-deficient tissues
response (ΔIsc) to VIP ([3]; wild-type human tissue, 10 nM VIP, PYY receptor inhibited with BIB03304): elevated response to VIP compared to untreated wild-type
basal Isc ([3]; wild-type human tissue, 300 nM BIB03304 added): reproducibly increased the basal Isc
Isc response to luminal dipeptide Gly-Sar ([3]; wild-type human tissue, 10 minutes pre-treatment with 300 nM BIB03304): did not alter the Isc response to Gly-Sar
initial Isc response to luminal glucose (mouse jejunum; wild-type mouse tissue treated with VIP, NPY1R antagonist BIB03304): caused an abnormal initial response to glucose that mimicked EEC-deficient tissues
response (ΔIsc) to VIP (mouse jejunum; wild-type mouse tissue, 10 nM VIP, PYY receptor inhibited with BIB03304): elevated response to VIP compared to untreated wild-type
basal Isc (mouse jejunum; wild-type mouse tissue, 300 nM BIB03304 added): reproducibly increased the basal Isc
Isc response to luminal dipeptide Gly-Sar (mouse jejunum; wild-type mouse tissue, 10 minutes pre-treatment with 300 nM BIB03304): did not alter the Isc response to Gly-Sar

PYY: Peptide YY, PYY(1-36) from Phoenix Pharmaceuticals; EEC-derived gut peptide acting on NPY1R; co-injected with DPP4 inhibitor in mice
VIP-induced enteroid swelling (HIO-derived enteroids [1]; EEC-deficient enteroids): significant inhibition of VIP-induced swelling
VIP-induced enteroid swelling (HIO-derived enteroids [1]; wild type enteroids): significant inhibition of VIP-induced swelling
intracellular pH (HIO-derived enteroids [2]; EEC-deficient enteroids, 10 nM VIP with concurrent 10 nM PYY for 5-7 days): normalized the pH in EEC-deficient enteroids
basal Isc ([3]; EEC-deficient (mutant) human tissue, 10 nM PYY added): lowered the basal Isc
initial Isc response to luminal glucose ([3]; EEC-deficient HIO tissue treated with VIP, pre-treatment with 10 nM PYY): returned to wild type levels
magnitude of response (ΔIsc) to VIP ([3]; EEC-deficient mutant HIOs, 10 nM VIP, exogenous PYY added): reduced the magnitude of response (ΔIsc) to VIP
basal Isc (mouse jejunum; EEC-deficient (mutant) mouse tissue, 10 nM PYY added): lowered the basal Isc
initial Isc response to luminal glucose (mouse jejunum; EEC-deficient mouse tissue treated with VIP, pre-treatment with 10 nM PYY): returned to wild type levels
Isc response to luminal dipeptide Gly-Sar (mouse jejunum; EEC-deficient mouse tissue, 10 minutes pre-treatment with 10 nM PYY, VIP present): did not alter the Isc response to Gly-Sar
magnitude of response (ΔIsc) to VIP (mouse jejunum; EEC-deficient mutant mice, 10 nM VIP, exogenous PYY added): reduced the magnitude of response (ΔIsc) to VIP
SLC9A3 expression (SLC9A3 (NHE3) expression; EEC-deficient enteroids, PYY concurrently with VIP, 5-7 days): restored SLC9A3 expression to not significantly different from untreated
response to luminal glucose ([4]; EEC-deficient HIOs, host animals injected with 25 μg PYY i.p. daily for 10 days): restores a normal glucose response
Isc response to luminal Gly-Sar ([4]; EEC-deficient transplanted HIOs, host animals treated long-term with PYY, compared to untreated mutant): improved Isc response to luminal Gly-Sar
survival of EEC-deficient (mutant) mice ([5]; 10 μg PYY(1-36) i.p. once daily from P10, co-injected with DPP4 inhibitor): up to 88%
Isc response to luminal Gly-Sar ([5]; EEC-deficient mice, long-term PYY treatment, compared to untreated mutant): improved Isc response to luminal Gly-Sar
response to luminal glucose ([5]; EEC-deficient mouse intestine after in vivo PYY treatment): restores a normal glucose response
MFI of pHrodo intensity (intracellular pH, proton transport) ([5]; EEC-deficient vs EEC-rich regions of mosaic jejunum after PYY treatment): normalized
electrogenic response to VIP ([5]; jejunum of mutant mice treated with PYY in vivo): restored to wild type levels
basal (resting) Isc of jejunum ([5]; mutant jejunum in Ussing chamber after in vivo injections of PYY): significantly decreased
diarrhea score (average) ([5]; within 48 hours of PYY treatment, score 3 = watery diarrhea, 0 = well-defined pellets, 10 μg PYY i.p. daily with DPP4 inhibitor): 1
